{"source": "patent US10493087B2", "about": "“Sialylation-increasing therapies for diseases associated with oxidative stress” (THE UNITED STATES OF AMERICA, AS REPRESENTED BY THE …, priority 2015, dated 2019)", "key": {"Gne−/−hGNED176V-Tg mice [1]": {"test_system": "Gne−/−hGNED176V-Tg mice", "assay": "Motor performance analysis (treadmill performance and endurance tests)", "assay_type": "in vivo", "conditions": "vs untreated", "method": "N-Acetylcysteine (NAC) Treatment Protocols: […] were randomly divided into high dose NAC (n=13), low dose NAC (n=13), or untreated control (n=17) groups. […] There was no difference in water consumption between mice receiving NAC supplemented water or regular drinking water. […] Three littermates groups (high dose NAC; n=7, low dose NAC; n=7, or untreated control; n=6) were treated in the same way. Motor performance analysis: The motor performance was evaluated using treadmill exercise as previously reported (9, 10) with minor modification. Briefly, after 7 days of acclimation on the treadmill, two exercise tests were performed on separate days. […] The time of exhaustion was used to calculate the total distance of the mice ran during the exercise. The endurance exercise consisted of a 60-min treadmill run at 20 m/min with a […] incline, during which the number of beam breaks or rests were recorded. Both tests were done twice with 2 days rest in between."}, "Gne−/−hGNED176V-Tg mice [2]": {"test_system": "Gne−/−hGNED176V-Tg mice", "assay": "Muscle contractile properties analysis (gastrocnemius)", "assay_type": "in vivo", "conditions": "for Peak isometric twitch force (Pt) / Maximum tetanic force (Po): gastrocnemius; for Peak isometric twitch force (Pt): untreated 167.1±6.0; for Maximum tetanic force (Po): untreated 526.7±24.1; for Specific isometric force (Pt/CSA): untreated 16.3±2.6; for Specific tetanic force (Po/CSA): untreated 51.4±8.9", "method": "N-Acetylcysteine (NAC) Treatment Protocols: […] were randomly divided into high dose NAC (n=13), low dose NAC (n=13), or untreated control (n=17) groups. […] There was no difference in water consumption between mice receiving NAC supplemented water or regular drinking water. […] Three littermates groups (high dose NAC; n=7, low dose NAC; n=7, or untreated control; n=6) were treated in the same way. Muscle contractile properties analysis: The contractile properties of the gastrocnemius and tibialis anterior muscles were measured according to previous protocol ([…] et al., Nat Med. 2009; 15:690-695; […] et al., Physiol Genomics. 2008; 35:106-115). After the mouse was anesthetized with intraperitoneal sodium pentobarbital (50 mg per kg body weight), the entire skeletal muscles were isolated along with the proximal bone of origin intact. Then the muscle was mounted in a vertical chamber and connected to a force-displacement and length servo system. […] With the muscle held at L0 and duration changed to 3 ms, the force developed during trains of stimulation pulses (10 to 100 Hz) was recorded and the maximum absolute tetanic force (Po) was determined. Absolute force was normalized with the physiologic cross-sectional area (CSA; muscle weight divided by the product of L0 and 1.066 g/cm^3) to obtain specific force (Pt/CSA and Po/CSA)."}, "β-amyloid": {"test_system": "β-amyloid", "assay": "β-amyloid expression by ELISA in muscle homogenates", "assay_type": "in vivo, mice", "conditions": "after NAC treatment"}}, "data": [{"smiles": "CC(=O)N[C@@H](CS)C(=O)O", "note": "[NAC, N-acetylcysteine]", "values": [{"measurement": "Treadmill performance and endurance tests", "setting": "Gne−/−hGNED176V-Tg mice [1]; high dose (HD) 1.5 g/kg per day in drinking water", "value": "significantly improved"}, {"measurement": "Motor function (treadmill)", "setting": "Gne−/−hGNED176V-Tg mice [1]; low dose (LD) 0.15 g/kg per day in drinking water", "value": "better motor function"}, {"measurement": "Peak isometric twitch force (Pt)", "setting": "Gne−/−hGNED176V-Tg mice [2]; HD group 1.5 g/kg per day", "value": "228.5±15.0", "unit": "mN"}, {"measurement": "Maximum tetanic force (Po)", "setting": "Gne−/−hGNED176V-Tg mice [2]; HD group 1.5 g/kg per day", "value": "687.5±52.4", "unit": "mN"}, {"measurement": "Specific isometric force (Pt/CSA)", "setting": "Gne−/−hGNED176V-Tg mice [2]; HD group 1.5 g/kg per day", "value": "22.5±5.1", "unit": "mN/mm^2"}, {"measurement": "Specific tetanic force (Po/CSA)", "setting": "Gne−/−hGNED176V-Tg mice [2]; HD group 1.5 g/kg per day", "value": "67.5±15.7", "unit": "mN/mm^2"}, {"measurement": "Peak isometric twitch force (Pt)", "setting": "Gne−/−hGNED176V-Tg mice [2]; LD group 0.15 g/kg per day", "value": "233.6±10.0", "unit": "mN"}, {"measurement": "Maximum tetanic force (Po)", "setting": "Gne−/−hGNED176V-Tg mice [2]; LD group 0.15 g/kg per day", "value": "735.0±43.0", "unit": "mN"}, {"measurement": "Specific isometric force (Pt/CSA)", "setting": "Gne−/−hGNED176V-Tg mice [2]; LD group 0.15 g/kg per day", "value": "23.4±3.3", "unit": "mN/mm^2"}, {"measurement": "Specific tetanic force (Po/CSA)", "setting": "Gne−/−hGNED176V-Tg mice [2]; LD group 0.15 g/kg per day", "value": "73.5±13.5", "unit": "mN/mm^2"}, {"measurement": "Increase of absolute contractile forces (Pt and Po) in littermate mice", "setting": "Gne−/−hGNED176V-Tg mice [2]; littermate control mice with NAC supplement", "value": "not statistically significant"}, {"measurement": "β-amyloid expression by ELISA in muscle homogenates", "setting": "β-amyloid", "value": "decreased"}]}]}
